The results in this text go back to ChEMBL document CHEMBL1201862, “PubChem BioAssay data set” (2004).

SMILES strings stand for the structures. Active and inactive are the calls of the source.

For experiment [1], the target named is Signal transducer and activator of transcription 3 (Homo sapiens, UniProt P40763). As to the kind of experiment: STAT3 blockade with qPCR and toxicity readouts – cell-based, STAT1 panel, cytotoxicity, late-stage follow-up, panel member STAT3 Inhibition (AID 2078).
Experiment [2] deals with Signal transducer and activator of transcription 1-alpha/beta (Homo sapiens, UniProt P42224). As to the kind of experiment: STAT3 blockade with qPCR and toxicity readouts – cell-based, STAT1 panel, cytotoxicity, late-stage follow-up, panel member STAT1 Inhibition (AID 2078). In general terms: Real-time PCR tracks product formation cycle by cycle.
Signal transducer and activator of transcription 1-alpha/beta, sequence (P42224 whole entry): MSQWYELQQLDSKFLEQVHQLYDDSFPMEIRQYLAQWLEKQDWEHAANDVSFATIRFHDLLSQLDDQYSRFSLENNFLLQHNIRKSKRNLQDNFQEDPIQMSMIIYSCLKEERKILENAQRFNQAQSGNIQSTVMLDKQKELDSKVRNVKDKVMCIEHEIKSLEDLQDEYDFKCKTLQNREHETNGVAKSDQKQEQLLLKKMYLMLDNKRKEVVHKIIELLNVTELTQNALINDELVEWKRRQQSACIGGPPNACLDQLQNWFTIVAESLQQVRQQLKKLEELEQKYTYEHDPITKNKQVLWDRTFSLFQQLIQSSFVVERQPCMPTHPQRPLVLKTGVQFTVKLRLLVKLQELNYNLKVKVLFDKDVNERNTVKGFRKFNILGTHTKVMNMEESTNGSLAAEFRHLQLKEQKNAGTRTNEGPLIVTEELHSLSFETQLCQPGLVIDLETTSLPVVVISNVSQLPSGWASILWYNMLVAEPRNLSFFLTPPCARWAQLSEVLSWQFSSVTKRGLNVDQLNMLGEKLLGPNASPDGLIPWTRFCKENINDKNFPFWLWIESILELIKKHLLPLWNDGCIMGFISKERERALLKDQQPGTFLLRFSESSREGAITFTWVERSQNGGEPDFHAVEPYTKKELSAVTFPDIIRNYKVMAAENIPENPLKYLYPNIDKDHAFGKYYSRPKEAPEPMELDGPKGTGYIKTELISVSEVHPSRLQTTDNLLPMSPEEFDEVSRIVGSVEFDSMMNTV
Experiment [3] in a line: Luminescence Cell-Based Dose Response HTS to Identify Inhibitors of 5'UTR Stem-Loop Driven Prion Protein mRNA Translation in H4 Neuroglioblastoma Cells. [Related pubchem assays: 1827 (Project Summary), 1813 (Primary HTS)]. The class given is functional.
The nature of experiment [4]: alpha-synuclein stem-loop luciferase translation blockers – H4 neuroglioma cells, luminescence, confirmation (AID 1988). The experiment is classed as functional, cell-based.
A short description of experiment [5]: luciferase reporter signal suppression in cells – H4 neuroglioma cells, luminescence, dose response (AID 1990). The experiment is classed as functional, cell-based.
The target of the next experiment is SUMO-activating enzyme (Homo sapiens, UniProt Q9UBT2). As to the kind of experiment: blockers of UBC9-mediated SUMO conjugation – biochemical, AlphaScreen, SUMOylation inhibitor project, confirmation (AID 2018). The experiment is classed as functional.
SUMO-activating enzyme, sequence (Q9UBE0 whole entry): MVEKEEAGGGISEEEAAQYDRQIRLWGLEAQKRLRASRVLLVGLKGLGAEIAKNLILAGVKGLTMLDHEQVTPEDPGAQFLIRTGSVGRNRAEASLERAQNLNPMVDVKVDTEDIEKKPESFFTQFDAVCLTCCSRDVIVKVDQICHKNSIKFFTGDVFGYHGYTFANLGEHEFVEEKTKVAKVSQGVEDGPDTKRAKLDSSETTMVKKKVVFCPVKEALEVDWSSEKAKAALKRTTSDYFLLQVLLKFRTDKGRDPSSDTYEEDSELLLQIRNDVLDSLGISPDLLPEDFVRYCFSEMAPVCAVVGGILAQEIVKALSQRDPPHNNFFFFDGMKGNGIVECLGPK
SUMO-activating enzyme, sequence (Q9UBT2 whole entry): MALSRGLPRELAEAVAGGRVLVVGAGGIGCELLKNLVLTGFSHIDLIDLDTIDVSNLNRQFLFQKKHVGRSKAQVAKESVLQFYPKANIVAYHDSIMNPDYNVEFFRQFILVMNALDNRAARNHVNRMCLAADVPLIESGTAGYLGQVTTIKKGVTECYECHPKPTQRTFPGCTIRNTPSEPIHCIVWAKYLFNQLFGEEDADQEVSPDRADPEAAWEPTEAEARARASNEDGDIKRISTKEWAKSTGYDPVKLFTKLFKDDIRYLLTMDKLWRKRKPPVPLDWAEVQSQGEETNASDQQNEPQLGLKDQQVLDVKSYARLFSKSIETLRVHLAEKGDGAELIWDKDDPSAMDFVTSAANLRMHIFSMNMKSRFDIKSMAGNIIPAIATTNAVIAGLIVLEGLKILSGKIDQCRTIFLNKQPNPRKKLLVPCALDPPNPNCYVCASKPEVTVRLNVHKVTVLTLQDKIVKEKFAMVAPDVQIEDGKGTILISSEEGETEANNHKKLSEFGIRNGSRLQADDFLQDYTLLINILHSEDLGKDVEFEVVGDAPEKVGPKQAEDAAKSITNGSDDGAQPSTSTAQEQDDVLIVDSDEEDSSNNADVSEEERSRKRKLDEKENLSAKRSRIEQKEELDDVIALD
Experiment [6] has as its system HEK293. Kind of experiment: cells. The class given is functional, cell-based. The note with it: Homo sapiens.
For experiment [7], the system named is HEK293. Kind of experiment: cells. The note with it: Homo sapiens. The experiment is classed as functional, cell-based. This is another data set of the same source.
The next experiment deals with T1, Hexokinase HKDC1 (Homo sapiens, UniProt Q2TB90).
T1 sequence (Q2TB90 whole entry): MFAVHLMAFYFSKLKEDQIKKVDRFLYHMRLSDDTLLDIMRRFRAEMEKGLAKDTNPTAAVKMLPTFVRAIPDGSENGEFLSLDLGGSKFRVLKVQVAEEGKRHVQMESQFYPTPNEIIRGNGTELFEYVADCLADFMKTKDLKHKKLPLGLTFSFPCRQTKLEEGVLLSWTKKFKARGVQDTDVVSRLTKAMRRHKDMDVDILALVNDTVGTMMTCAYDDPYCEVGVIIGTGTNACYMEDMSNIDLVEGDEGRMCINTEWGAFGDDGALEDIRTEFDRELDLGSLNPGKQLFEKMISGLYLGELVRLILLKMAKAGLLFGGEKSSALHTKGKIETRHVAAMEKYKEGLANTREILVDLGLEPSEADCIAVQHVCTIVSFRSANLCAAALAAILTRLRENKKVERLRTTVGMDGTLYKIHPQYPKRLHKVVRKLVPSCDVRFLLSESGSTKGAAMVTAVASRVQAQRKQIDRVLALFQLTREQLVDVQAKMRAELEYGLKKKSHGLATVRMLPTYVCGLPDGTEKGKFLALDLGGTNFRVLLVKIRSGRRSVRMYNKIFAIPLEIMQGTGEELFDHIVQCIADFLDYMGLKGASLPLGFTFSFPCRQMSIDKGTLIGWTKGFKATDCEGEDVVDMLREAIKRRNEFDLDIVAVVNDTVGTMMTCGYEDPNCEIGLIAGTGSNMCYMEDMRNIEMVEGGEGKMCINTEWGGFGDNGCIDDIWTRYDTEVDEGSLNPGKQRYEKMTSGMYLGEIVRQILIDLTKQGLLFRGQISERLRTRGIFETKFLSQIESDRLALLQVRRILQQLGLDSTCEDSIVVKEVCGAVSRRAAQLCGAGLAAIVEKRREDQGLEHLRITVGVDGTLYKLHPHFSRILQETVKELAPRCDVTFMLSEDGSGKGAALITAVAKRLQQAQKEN
Kind of experiment: activation of HKDC1 glucose phosphorylation – biochemical, W721R variant, dose response (AID 504730). The experiment is classed as functional.

The subject of experiment [8] is HEK293. As to the kind of experiment: cells. Conditions: Homo sapiens. The experiment is classed as functional, cell-based. The source holds these as a separate data set.
The target of a further experiment is Hexokinase-1 (Homo sapiens, UniProt P19367). As to the kind of experiment: HK1 enzyme activation by HKDC1 hits – biochemical, selectivity assay for HKDC1 activator project, dose response (AID 504762). The experiment is classed as functional.
Hexokinase-1, sequence (P19367 whole entry): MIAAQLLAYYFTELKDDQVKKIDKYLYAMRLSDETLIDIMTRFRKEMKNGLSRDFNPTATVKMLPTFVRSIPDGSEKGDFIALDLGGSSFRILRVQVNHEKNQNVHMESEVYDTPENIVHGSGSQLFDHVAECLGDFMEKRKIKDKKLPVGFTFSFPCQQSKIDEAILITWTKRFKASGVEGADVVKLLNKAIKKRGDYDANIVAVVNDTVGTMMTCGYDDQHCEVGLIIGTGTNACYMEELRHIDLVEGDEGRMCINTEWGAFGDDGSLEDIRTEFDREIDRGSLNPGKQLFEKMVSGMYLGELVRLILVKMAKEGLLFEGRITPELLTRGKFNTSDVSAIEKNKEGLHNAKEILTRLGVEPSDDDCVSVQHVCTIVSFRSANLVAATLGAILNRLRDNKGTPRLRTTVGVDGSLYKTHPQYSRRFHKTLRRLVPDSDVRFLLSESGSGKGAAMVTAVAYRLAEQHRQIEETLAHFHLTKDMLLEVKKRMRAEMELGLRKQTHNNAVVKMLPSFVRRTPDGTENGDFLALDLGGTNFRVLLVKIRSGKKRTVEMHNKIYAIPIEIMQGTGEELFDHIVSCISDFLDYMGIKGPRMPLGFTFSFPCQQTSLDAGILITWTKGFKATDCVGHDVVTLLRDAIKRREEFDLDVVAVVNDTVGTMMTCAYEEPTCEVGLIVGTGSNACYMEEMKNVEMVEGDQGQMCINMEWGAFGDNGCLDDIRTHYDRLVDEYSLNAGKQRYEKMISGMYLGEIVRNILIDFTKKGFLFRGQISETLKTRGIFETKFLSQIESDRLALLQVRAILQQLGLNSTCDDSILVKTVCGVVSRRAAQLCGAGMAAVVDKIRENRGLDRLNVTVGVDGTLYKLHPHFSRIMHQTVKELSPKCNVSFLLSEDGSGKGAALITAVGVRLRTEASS
Experiment [9] has as its target T2, Heat shock factor protein 1 (Mus musculus, UniProt P38532).
T2 sequence (P38532 whole entry): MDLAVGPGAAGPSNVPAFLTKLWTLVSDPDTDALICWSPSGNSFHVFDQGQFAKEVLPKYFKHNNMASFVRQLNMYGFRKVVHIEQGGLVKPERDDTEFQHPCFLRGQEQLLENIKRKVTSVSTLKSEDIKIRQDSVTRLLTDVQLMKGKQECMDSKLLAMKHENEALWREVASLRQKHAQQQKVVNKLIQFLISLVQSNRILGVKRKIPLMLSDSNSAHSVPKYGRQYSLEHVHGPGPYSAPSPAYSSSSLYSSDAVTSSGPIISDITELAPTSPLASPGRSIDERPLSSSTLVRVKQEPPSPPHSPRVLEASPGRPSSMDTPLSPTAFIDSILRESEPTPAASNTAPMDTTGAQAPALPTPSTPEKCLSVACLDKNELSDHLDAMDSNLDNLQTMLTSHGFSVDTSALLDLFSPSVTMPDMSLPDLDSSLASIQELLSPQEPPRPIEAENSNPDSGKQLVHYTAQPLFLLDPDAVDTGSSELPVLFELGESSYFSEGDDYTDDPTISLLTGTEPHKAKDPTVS
Kind of experiment: decrease of HSF1-responsive luciferase luminescence – cell-based, NIH3T3, dose retest, confirmation (AID 2382).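 Note: NIH3T3 fibroblasts with HSF1-driven luciferase reporter stressed by proteasome inhibitor MG132; luminescence from HSF1-driven luciferase expression after 8 hours of MG132 stress.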 The experiment is classed as functional.

In experiment [10] the test system is HEK293. Kind of experiment: inhibition of NOD1-driven NF-kB reporter – cell-based, luminescence, uHTS, primary screen (AID 1578). The class given is functional. Conditions: Homo sapiens.
For a further experiment, the system named is INS1. As to the kind of experiment: INS-1E survival protection against cytokine death – cell-based, luminescence, retest, dose response (AID 449756).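 Note: cell death triggered by IL-1 beta plus TNF-alpha plus IFN-gamma mixture; protective hits raise ATP signal compared with cytokine alone wells.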 The experiment is classed as functional. Conditions: Rattus norvegicus.
Experiment [11] deals with HEK293. As to the kind of experiment: NOD2 signaling inhibitors in MDP-stimulated cells, cell-based, uHTS, luminescence (AID 2001). The note with it: Homo sapiens. The class given is functional.
Experiment [12] deals with Nucleotide-binding oligomerization domain-containing protein 2 (Homo sapiens, UniProt Q9HC29). Kind of experiment: inhibition of NOD2-driven NF-kB reporter – cell-based, luminescence, uHTS, HEK293 (AID 1566). The experiment is classed as functional.
Nucleotide-binding oligomerization domain-containing protein 2, sequence (Q9HC29 whole entry, the tested form may be a part): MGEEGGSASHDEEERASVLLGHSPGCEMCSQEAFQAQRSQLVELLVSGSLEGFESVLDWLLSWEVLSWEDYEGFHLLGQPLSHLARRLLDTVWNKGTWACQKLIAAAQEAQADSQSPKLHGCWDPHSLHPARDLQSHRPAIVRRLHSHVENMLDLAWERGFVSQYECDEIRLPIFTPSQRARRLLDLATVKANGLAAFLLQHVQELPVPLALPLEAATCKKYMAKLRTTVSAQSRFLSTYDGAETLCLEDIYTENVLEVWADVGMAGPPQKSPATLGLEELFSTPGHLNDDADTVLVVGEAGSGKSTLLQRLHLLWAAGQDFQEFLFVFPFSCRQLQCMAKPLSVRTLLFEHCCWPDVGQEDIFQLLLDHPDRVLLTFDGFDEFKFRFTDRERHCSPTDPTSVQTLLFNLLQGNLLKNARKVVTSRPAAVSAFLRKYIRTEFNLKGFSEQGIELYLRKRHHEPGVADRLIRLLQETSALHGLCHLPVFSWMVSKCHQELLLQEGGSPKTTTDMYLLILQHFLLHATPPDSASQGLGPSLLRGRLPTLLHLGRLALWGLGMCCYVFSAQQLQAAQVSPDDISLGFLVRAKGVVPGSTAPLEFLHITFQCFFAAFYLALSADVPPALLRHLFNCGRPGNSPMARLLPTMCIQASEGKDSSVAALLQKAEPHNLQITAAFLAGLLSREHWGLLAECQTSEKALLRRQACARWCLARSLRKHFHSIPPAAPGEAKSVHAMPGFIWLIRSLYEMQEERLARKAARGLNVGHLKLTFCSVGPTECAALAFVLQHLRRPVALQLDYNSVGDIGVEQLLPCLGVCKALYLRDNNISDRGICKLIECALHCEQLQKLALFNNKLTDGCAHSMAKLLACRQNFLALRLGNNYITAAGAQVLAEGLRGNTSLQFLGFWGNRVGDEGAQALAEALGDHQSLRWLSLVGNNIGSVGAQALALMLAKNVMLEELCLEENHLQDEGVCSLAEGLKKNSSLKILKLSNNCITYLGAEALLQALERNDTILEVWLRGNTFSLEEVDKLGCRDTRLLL
A further experiment has as its system CHO-K1. As to the kind of experiment: Counterscreen for antagonists of the orexin 1 receptor (OX1R; HCRTR1): Homogeneous time resolved fluorescence (HTRF)-based cell-based dose response assay to identify antagonists of the parental CHO-K1 cell line. [Related pubchem assays (depositor defined):AID434989, AID435008, AID463079, AID485270, AID492963, AID492964, AID492965, AID493232, AID504699, AID504701]. The experiment is classed as functional. Conditions: Cricetulus griseus.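 Note: potency for inhibition of ATP-stimulated IP1 production as antagonists.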

The target of experiment [13] is T3, Orexin receptor type 2 (Homo sapiens, UniProt O43614).
T3 sequence (O43614 whole entry): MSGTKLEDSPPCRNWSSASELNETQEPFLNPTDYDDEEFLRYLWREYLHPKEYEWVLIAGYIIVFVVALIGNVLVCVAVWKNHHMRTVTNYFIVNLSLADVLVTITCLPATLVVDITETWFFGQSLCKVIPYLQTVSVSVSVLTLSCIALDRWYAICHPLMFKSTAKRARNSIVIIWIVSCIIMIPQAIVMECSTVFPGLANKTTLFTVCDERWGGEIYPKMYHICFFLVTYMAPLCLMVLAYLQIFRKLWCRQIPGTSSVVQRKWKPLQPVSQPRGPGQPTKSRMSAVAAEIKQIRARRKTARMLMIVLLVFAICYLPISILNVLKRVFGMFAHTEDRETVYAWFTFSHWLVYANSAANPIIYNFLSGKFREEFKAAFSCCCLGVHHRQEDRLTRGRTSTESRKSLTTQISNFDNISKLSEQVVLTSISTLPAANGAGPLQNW
Kind of experiment: Counterscreen assay for antagonists of the orexin 1 receptor (OX1R; HCRTR1): Fluorescence-based cell-based dose response assay for antagonists of the orexin 2 receptor (OX2R; HCRTR2), run by assay provider. The experiment is classed as functional. A general note: A counterscreen serves to expose hits that act by an unwanted route or on another target.

For experiment [14], the target named is T4, Orexin/Hypocretin receptor type 1 (Homo sapiens, UniProt O43613).
T4 sequence (O43613 whole entry): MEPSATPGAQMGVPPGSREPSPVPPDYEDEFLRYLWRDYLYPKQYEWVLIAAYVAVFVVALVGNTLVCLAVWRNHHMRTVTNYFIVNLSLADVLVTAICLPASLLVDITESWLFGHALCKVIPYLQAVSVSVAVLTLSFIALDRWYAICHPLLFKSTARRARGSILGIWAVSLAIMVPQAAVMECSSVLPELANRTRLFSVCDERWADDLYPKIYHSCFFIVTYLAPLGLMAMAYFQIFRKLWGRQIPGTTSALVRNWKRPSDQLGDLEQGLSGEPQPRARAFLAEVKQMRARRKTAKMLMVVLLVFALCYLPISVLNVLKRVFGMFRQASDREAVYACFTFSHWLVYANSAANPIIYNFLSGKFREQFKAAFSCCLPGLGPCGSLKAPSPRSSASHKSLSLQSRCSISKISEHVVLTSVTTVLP
As to the kind of experiment: Fluorescence-based cell-based high throughput dose response assay for antagonists of the orexin 1 receptor (OX1R; HCRTR1). [Related pubchem assays (depositor defined):AID434989, AID435008, AID463079, AID485270, AID492963, AID492964, AID492965, AID493232, AID504717, AID504718]. The experiment is classed as functional.

The target in experiment [15] is T4, Orexin/Hypocretin receptor type 1. As to the kind of experiment: Homogeneous Time Resolved Fluorescence (HTRF)-based cell-based high throughput dose response assay for antagonists of the orexin 1 receptor (OX1R; HCRTR1). [Related pubchem assays (depositor defined):AID434989, AID435008, AID463079, AID485270, AID492963, AID492964, AID492965, AID493232, AID504717, AID504718]. The experiment is classed as functional.

Experiment [16] concerns the target T3, Orexin receptor type 2. As to the kind of experiment: Counterscreen assay for antagonists of the orexin 1 receptor (OX1R; HCRTR1): Homogeneous Time Resolved Fluorescence (HTRF)-based cell-based dose response assay for antagonists of the orexin 2 receptor (OX2R; HCRTR2), run by assay provider. The experiment is classed as functional.
Experiment [17] in a line: Counterscreen for antagonists of the orexin 1 receptor (OX1R; HCRTR1): Fluorescence-based cell-based high throughput dose response assay to identify antagonists of the parental CHO cell line. [Related pubchem assays (depositor defined):AID434989, AID435008, AID463079, AID485270, AID492963, AID492964, AID492965, AID493232, AID504699, AID504701]. The experiment is classed as functional.

Signal transducer and activator of transcription 3, sequence (P40763 whole entry): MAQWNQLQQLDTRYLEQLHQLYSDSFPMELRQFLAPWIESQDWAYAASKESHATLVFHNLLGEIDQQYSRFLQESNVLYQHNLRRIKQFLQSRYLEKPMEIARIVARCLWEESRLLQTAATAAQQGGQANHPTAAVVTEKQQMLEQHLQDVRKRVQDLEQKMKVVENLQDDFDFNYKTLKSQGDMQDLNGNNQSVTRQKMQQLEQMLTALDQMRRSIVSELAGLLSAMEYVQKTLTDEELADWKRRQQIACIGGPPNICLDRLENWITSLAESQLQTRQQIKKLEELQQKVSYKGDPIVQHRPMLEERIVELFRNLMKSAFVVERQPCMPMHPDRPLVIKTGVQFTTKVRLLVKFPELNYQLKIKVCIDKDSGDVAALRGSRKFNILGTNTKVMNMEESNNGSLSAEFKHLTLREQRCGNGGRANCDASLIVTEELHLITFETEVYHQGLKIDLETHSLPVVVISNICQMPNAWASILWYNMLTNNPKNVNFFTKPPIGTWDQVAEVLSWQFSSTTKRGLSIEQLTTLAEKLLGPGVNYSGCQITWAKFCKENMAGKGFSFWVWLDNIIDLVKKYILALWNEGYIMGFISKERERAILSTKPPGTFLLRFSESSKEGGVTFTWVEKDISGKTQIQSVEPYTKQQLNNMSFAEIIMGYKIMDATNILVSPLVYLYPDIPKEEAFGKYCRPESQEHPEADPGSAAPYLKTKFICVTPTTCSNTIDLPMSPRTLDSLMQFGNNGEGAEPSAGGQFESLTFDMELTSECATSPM

For the compound `COC(=O)c1cc2c(N3CCC(Cc4ccccc4)CC3)ncnc2s1`, the IC50 – broadly, the concentration at which inhibition is half-maximal – was > 18.6 µM (inactive) in experiment [1] and > 55.7 µM (inactive) in [2].
In the case of `C=CCn1c(N)c(C(=O)Nc2ccccc2)c2nc3ccccc3nc21`, the EC50 – broadly, the concentration giving half of the maximal effect – was > 120 µM (not active) in experiment [3], > 120 µM (not active) in [4] and 22 µM (active) in experiment [5]. For the same compound, at SUMO-activating enzyme, the IC50 is 14.5 µM (active).
On to `CCCOc1ccc(/C=N/NC(=S)Nc2ccccc2[N+](=O)[O-])c(O)c1`, for which the IC50 with HEK293 [6] is > 20 µM (inactive); in the experiment with HEK293 [7], 1.82 µM (active); in the experiment on HEK293 [8], > 20 µM (inactive); with HEK293 [11], 0.233 µM (active). Besides, the EC50 is 26.5 µM (inactive) on Hexokinase HKDC1; > 80 µM (inactive) at Hexokinase-1; 11 µM (active) in experiment [9]; 11.9 µM (active) with HEK293 [10]; 0.78 µM (active) in experiment [12]. In addition, the AC50 – broadly, the midpoint of the concentration-response curve, whichever way the signal moves – in the experiment on INS1 is 1.28 µM (active).
Consider `COc1ccc2c(c1)nc(O)c1sc3ccccc3c12`, for which the IC50 is > 66.2 µM (inactive) in the experiment on CHO-K1; 5.5 µM (active) at Orexin receptor type 2 [13]; 7.77 µM (active) in [14]; 2.49 µM (active) in [15]; > 50 µM (inactive) at Orexin receptor type 2 [16]; > 49.7 µM (inactive) in experiment [17].
For `CNc1nc(Nc2ccc(C)c(Cl)c2)c2cnn(C)c2n1`, the IC50 in the experiment on CHO-K1 is > 66.2 µM (inactive); at Orexin receptor type 2 [13], > 88.8 µM (inactive); in experiment [14], 14.4 µM (inactive); in [15], 2.07 µM (active); on Orexin receptor type 2 [16], > 50 µM (inactive); in [17], > 49.8 µM (inactive).
